Laboratory results: patent publication US12207672B2, “Compounds that modulate GPR92 receptor activity and pet food products containing the same” (MARS, INCORPORATED, priority 2018, dated 2025)

Tested on: fGPR92 receptor
Assay: fGPR92 activation in CHO-K1 cells, calcium sensitive fluorescent dye (FLIPR Tetra), agonist mode
Assay type: cell-based, cat
Details: CHO-K1 cells stably expressing fGPR92
Description: The present example describes the activation of the cat GPR92 receptor (fGPR92) by various compounds and compositions in vitro. Samples that can function as GPR92 agonists were identified by in vitro functional characterization. The effectiveness of a sample in activating the fGPR92 receptor was evaluated. Methods: CHO-Kl cells stably expressing fGPR92 were used to screen 118 test samples to identify samples that can activate the fGPR92 receptor. Activation of the fGPR92 receptor was detected by changes in intracellular calcium levels using a calcium sensitive fluorescent dye. Cells without fGPR92 receptor expression (mock cells) were used as a control. A FLIPR® Tetra system was used for data capture. Each sample was first tested for its ability to activate fGPR92 at three different dose levels in both agonist mode and positive allosteric modulator mode. Active samples were further tested at eight different dose levels in both agonist mode and positive allosteric modulator mode. Peptone from Sigma-Aldrich (product number: P5905; CAS number 73049-73-7) was used in this Example. Dose response curves were then generated for each sample. Menthol and cinnamaldehyde were used as negative controls. In the agonist mode (AGO), 14:0 LPA at 10 μM (EC100) was used as a positive control and the assay buffer was used as a negative control. […]

SMILES | activation of fGPR92 receptor
CC(C)[C@@H]1CC[C@@H](C)C[C@H]1O [Menthol, L-menthol] | did not activate fGPR92 receptor
O=C/C=C/c1ccccc1 [cinnamaldehyde, cinnamic aldehyde] | did not activate fGPR92 receptor
